Patent US9663478B2, “Benzotriazine oxides as drugs targeting Mycobacterium tuberculosis” (priority 2011, dated 2017)
≈ marks a conversion by molar mass, not a printed value. Read-outs that look alike come from different tables or passages of the source.

Columns and labels:
Mtb H37Rv [1] = test: TB MIC - SRI, resazurin-based microplate assay; format: cell-based, Mycobacterium tuberculosis; conditions: for MIC: Mycobacterium tuberculosis, H37RV, read-out: TB MIC - SRI; for MIC / TB MIC - SRI: Tables 1-4 and text; for MIC, H37Rv: Table 5
NRP Mtb H37Rv cells = test: Low-oxygen recovery assay (LORA) MIC; format: cell-based, Mycobacterium tuberculosis; conditions: NRP Mtb, Tables 1-4 and text; for MIC: Mycobacterium tuberculosis, H37RV, read-out: LORA MIC - ITR
Mtb H37Rv [2] = test: TB MIC - ITR (UIC), Institute for Tuberculosis Research; format: cell-based, Mycobacterium tuberculosis; conditions: Tables 1-4; for MIC: Mycobacterium tuberculosis, H37RV, read-out: TB MIC - ITR

SMILES | MIC (Mtb H37Rv [1]) | MIC (NRP Mtb H37Rv cells) | Vero Tox CC50 (Vero cells; African green monkey, 72 h) | MIC (Mtb H37Rv [2]) | MIC, H37Rv (Mtb H37Rv [1]) | TB MIC - SRI (Mtb H37Rv [1]) | LORA MIC - ITR (NRP Mtb H37Rv cells) | Vero Tox CC50 (Vero cells) | TB MIC - ITR (Mtb H37Rv [2])
[O-][n+]1nc(NC2CCCCC2)[n+]([O-])c2ccc(Cl)cc21 [Compound 15bf, 7-chloro-3-(cyclohexylamino)benzo[e][1,2,4]triazine 1,4-dioxide] | 0.62 µg/mL (≈ 2.1 µM) | 0.63 µg/mL (≈ 2.14 µM) | 2.6 µg/mL | 0.94 µg/mL (≈ 3.19 µM) | – | – | – | – | –
[O-][n+]1nc(N[C@@H]2C[C@H]3CC[C@@H]2C3)[n+]([O-])c2ccc(Cl)cc21 [Compound 15bm, 3-((1R,2R,4S)-bicyclo[2.2.1]heptan-2-ylamino)-7-chlorobenzo[e][1,2,4]triazine 1,4-dioxide] | 0.15 µg/mL (≈ 0.489 µM) | 0.23 µg/mL (≈ 0.75 µM) | 1.1 µg/mL | 0.22 µg/mL (≈ 0.717 µM) | – | – | – | – | –
CCNc1n[n+]([O-])c2cc(Br)ccc2[n+]1[O-] [Compound 15ca, 7-bromo-3-(ethylamino)benzo[e][1,2,4]triazine 1,4-dioxide] | 0.62 µg/mL (≈ 2.17 µM) | 0.46 µg/mL (≈ 1.61 µM) | 4.2 µg/mL | 0.49 µg/mL (≈ 1.72 µM) | – | – | – | – | –
[O-][n+]1nc(NC2CCC2)[n+]([O-])c2ccc(Br)cc21 [Compound 15cd, 7-bromo-3-(cyclobutylamino)benzo[e][1,2,4]triazine 1,4-dioxide] | 0.15 µg/mL (≈ 0.482 µM) | 0.41 µg/mL (≈ 1.32 µM) | 3.8 µg/mL | 0.46 µg/mL (≈ 1.48 µM) | – | – | – | – | –
[O-][n+]1nc(NC2CCCC2)[n+]([O-])c2ccc(Br)cc21 [Compound 15ce, 7-bromo-3-(cyclopentylamino)benzo[e][1,2,4]triazine 1,4-dioxide] | 0.15 µg/mL (≈ 0.461 µM) | 0.46 µg/mL (≈ 1.41 µM) | 18 µg/mL | 0.35 µg/mL (≈ 1.08 µM) | – | – | – | – | –
[O-][n+]1nc(N[C@@H]2C[C@H]3CC[C@@H]2C3)[n+]([O-])c2ccc(Br)cc21 [Compound 15cm, 3-((1R,2R,4S)-bicyclo[2.2.1]heptan-2-ylamino)-7-bromobenzo[e][1,2,4]triazine 1,4-dioxide] | 0.31 µg/mL (≈ 0.883 µM) | 0.41 µg/mL (≈ 1.17 µM) | 0.80 µg/mL | 0.36 µg/mL (≈ 1.03 µM) | – | – | – | – | –
COc1ccc2c(c1)[n+]([O-])nc(NC1CCC1)[n+]2[O-] [Compound 15dd, 3-(cyclobutylamino)-7-methoxybenzo[e][1,2,4]triazine 1,4-dioxide] | 0.62 µg/mL (≈ 2.36 µM) | 0.9 µg/mL (≈ 3.43 µM) | 9.8 µg/mL | 0.96 µg/mL (≈ 3.66 µM) | – | – | – | – | –
COc1ccc2c(c1)[n+]([O-])nc(N[C@@H]1C[C@H]3CC[C@@H]1C3)[n+]2[O-] [Compound 15dm, 3-((1R,2R,4S)-bicyclo[2.2.1]heptan-2-ylamino)-7-methoxybenzo[e][1,2,4]triazine 1,4-dioxide] | 0.62 µg/mL (≈ 2.05 µM) | 1.6 µg/mL (≈ 5.29 µM) | >50 µg/mL | 0.97 µg/mL (≈ 3.21 µM) | – | – | – | – | –
CCNc1n[n+]([O-])c2cccc(C)c2[n+]1[O-] [Compound 15ea, Ethyl-(5-methyl-1,4-dioxy-benzo[1,2,4]triazin-3-yl)-amine] | – | – | – | – | 0.62 µg/mL (≈ 2.82 µM) | 0.62 µg/mL | 0.48 µg/mL | 22 µg/mL | 0.51 µg/mL
Cc1cccc2c1[n+]([O-])c(NC1CCC1)n[n+]2[O-] [Compound 15ed, 3-(cyclobutylamino)-5-methylbenzo[e][1,2,4]triazine 1,4-dioxide] | 0.31 µg/mL (≈ 1.26 µM) | 0.43 µg/mL (≈ 1.75 µM) | 22 µg/mL | 0.47 µg/mL (≈ 1.91 µM) | – | – | – | – | –
[O-][n+]1nc(NC2CCC2)[n+]([O-])c2cc3c(cc21)CCC3 [Compound 15fd, Cyclobutyl-(5,8-dioxy-2,3-dihydro-1H-5,6,8-triaza-cyclopenta[b]naphthalen-7-yl)-amine] | – | – | – | – | 0.62 µg/mL (≈ 2.28 µM) | 0.62 µg/mL | 0.44 µg/mL | 34 µg/mL | 0.96 µg/mL
[O-][n+]1nc(N[C@@H]2C[C@H]3CC[C@@H]2C3)[n+]([O-])c2cc3c(cc21)CCC3 [Compound 15fm, 3-((1R,2R,4S)-bicyclo[2.2.1]heptan-2-ylamino)-7,8-dihydro-6H-indeno[5,6-e][1,2,4]triazine 1,4-dioxide] | 1.2 µg/mL (≈ 3.84 µM) | 0.36 µg/mL (≈ 1.15 µM) | >50 µg/mL | 0.93 µg/mL (≈ 2.98 µM) | – | – | – | – | –
COc1cc2c(cc1C)[n+]([O-])nc(NC1CCC1)[n+]2[O-] [Compound 15gd, 3-(cyclobutylamino)-6-methoxy-7-methylbenzo[e][1,2,4]triazine 1,4-dioxide] | 2.5 µg/mL (≈ 9.05 µM) | 2.9 µg/mL (≈ 10.5 µM) | >50 µg/mL | 5.1 µg/mL (≈ 18.5 µM) | – | – | – | – | –
COc1cc2c(cc1C)[n+]([O-])nc(N[C@@H]1C[C@H]3CC[C@@H]1C3)[n+]2[O-] [Compound 15gm, 3-((1R,2R,4S)-bicyclo[2.2.1]heptan-2-ylamino)-6-methoxy-7-methylbenzo[e][1,2,4]triazine 1,4-dioxide] | 5 µg/mL (≈ 15.8 µM) | 3.5 µg/mL (≈ 11.1 µM) | >50 µg/mL | 5.6 µg/mL (≈ 17.7 µM) | – | – | – | – | –
CCN(CC)c1n[n+]([O-])c2ccccc2[n+]1[O-] [Compound 17o, 3-(diethylamino)benzo[e][1,2,4]triazine 1,4-dioxide] | 0.31 µg/mL (≈ 1.32 µM) | 1.3 µg/mL (≈ 5.55 µM) | 12 µg/mL | 0.46 µg/mL (≈ 1.96 µM) | – | – | – | – | –
[O-][n+]1nc(N2CCOCC2)[n+]([O-])c2ccccc21 [Compound 17p, 3-morpholinobenzo[e][1,2,4]triazine 1,4-dioxide] | 2.5 to 5 µg/mL (≈ 10.1 to 20.1 µM) | 19 µg/mL (≈ 76.5 µM) | 5.4 µg/mL | 3.7 µg/mL (≈ 14.9 µM) | – | – | – | – | –
